In patent US12582731B2, “Method to decontaminate solid surface” (BIOMONETA RESEARCH PVT LTD, priority 2022, dated 2026):

Legend:
microbial load [1] = assay: Microbial load reduction on cotton cloth coated with quaternary ammonium compound alone; format: cell-based; conditions: no electric field
Protocol: The solid surface (cotton cloth) was suspended in a solution containing cetyltrimethylammonium bromide (CTAB) or alkyl dimethyl benzyl ammonium chloride (benzalkonium chloride) at various concentrations for about 2 hours. The solid surfaces were then heat dried in a furnace where the temperature was set at about 80° C., for about 8 hours. Once dried, the solid surfaces coated with QAC were ready to be used for various applications.
Reduction in microbial load was analysed at different concentrations of QACs.

microbial load [2] = assay: Microbial load reduction on QAC-coated cotton cloth with or without electric field; format: cell-based
Protocol: The effect of QAC coating and electric field application on flexible solid surfaces was analysed. The solid surface analysed was fabric (cotton cloth). The procedure for coating of QAC (CTAB or benzalkonium chloride) onto the cotton cloth was identical to the procedure described in Example 1. The final coated amount of QAC (CTAB or benzalkonium chloride) was between 0.01-0.05 mg/cm^2 of the solid surface. The electric field in this experiment was applied via. switch mode power supply (SMPS) with a voltage of 4 kV/cm coupled with a capacitance of 0.05 μF for various time-periods.
Reduction in microbial load was analysed using different methods.

Substance: alkyl dimethyl benzyl ammonium chloride [benzalkonium chloride]
- Microbial Load Reduction (Log10 Scale) (microbial load [1]; cotton cloth coated with 1% w/v, 0 mins): 0.00 Log10
- Microbial Load Reduction (Log10 Scale) (microbial load [1]; cotton cloth coated with 1% w/v, 10 mins): 0.82 Log10
- Microbial Load Reduction (Log10 Scale) (microbial load [1]; cotton cloth coated with 1% w/v, 30 mins): 1.70 Log10
- Microbial Load Reduction (Log10 Scale) (microbial load [1]; cotton cloth coated with 1% w/v, 45 mins): 4.57 Log10
- Microbial Load Reduction (Log10 Scale) (microbial load [1]; cotton cloth coated with 1% w/v, 60 mins): 7.48 Log10
- Microbial Load Reduction (Log10 Scale) (microbial load [1]; cotton cloth coated with 1% w/v, 90 mins): 7.48 Log10
- Microbial Load Reduction (Log10 Scale) (microbial load [1]; cotton cloth coated with 10% w/v, 0 mins): 0.00 Log10
- Microbial Load Reduction (Log10 Scale) (microbial load [1]; cotton cloth coated with 10% w/v, 10 mins): 0.92 Log10
- Microbial Load Reduction (Log10 Scale) (microbial load [1]; cotton cloth coated with 10% w/v, 30 mins): 3.10 Log10
- Microbial Load Reduction (Log10 Scale) (microbial load [1]; cotton cloth coated with 10% w/v, 45 mins): 7.30 Log10
- Microbial Load Reduction (Log10 Scale) (microbial load [1]; cotton cloth coated with 10% w/v, 60 mins): 7.30 Log10
- Microbial Load Reduction (Log10 Scale) (microbial load [1]; cotton cloth coated with 10% w/v, 90 mins): 7.30 Log10
- Microbial Load Reduction (Log10 Scale) (microbial load [2]; cotton cloth coated with 1% w/v, With Electric Field (SMPS, 4 kV/cm, 0.05 μF), 0 mins): 0.00 Log10
- Microbial Load Reduction (Log10 Scale) (microbial load [2]; cotton cloth coated with 1% w/v, With Electric Field (SMPS, 4 kV/cm, 0.05 μF), 10 mins): 1.51 Log10
- Microbial Load Reduction (Log10 Scale) (microbial load [2]; cotton cloth coated with 1% w/v, With Electric Field (SMPS, 4 kV/cm, 0.05 μF), 30 mins): 2.39 Log10
- Microbial Load Reduction (Log10 Scale) (microbial load [2]; cotton cloth coated with 1% w/v, Without Electric Field, 0 mins): 0.00 Log10
- Microbial Load Reduction (Log10 Scale) (microbial load [2]; cotton cloth coated with 1% w/v, Without Electric Field, 10 mins): 0.82 Log10
- Microbial Load Reduction (Log10 Scale) (microbial load [2]; cotton cloth coated with 1% w/v, Without Electric Field, 30 mins): 1.70 Log10
- Microbial Load Reduction (Log10 Scale) (microbial load [2]; cotton cloth coated with 10% w/v, With Electric Field (SMPS, 4 kV/cm, 0.05 μF), 0 mins): 0.00 Log10
- Microbial Load Reduction (Log10 Scale) (microbial load [2]; cotton cloth coated with 10% w/v, With Electric Field (SMPS, 4 kV/cm, 0.05 μF), 10 mins): 1.16 Log10
- Microbial Load Reduction (Log10 Scale) (microbial load [2]; cotton cloth coated with 10% w/v, With Electric Field (SMPS, 4 kV/cm, 0.05 μF), 30 mins): 3.03 Log10
- Microbial Load Reduction (Log10 Scale) (microbial load [2]; cotton cloth coated with 10% w/v, Without Electric Field, 0 mins): 0.00 Log10
- Microbial Load Reduction (Log10 Scale) (microbial load [2]; cotton cloth coated with 10% w/v, Without Electric Field, 10 mins): 0.92 Log10
- Microbial Load Reduction (Log10 Scale) (microbial load [2]; cotton cloth coated with 10% w/v, Without Electric Field, 30 mins): 3.10 Log10
